Test results as given in patent US6448260B2, “Endothelin receptor antagonists” (SmithKline Beecham Corporation, priority 1991, dated 2002).
Counter-ions that a name gives are not always drawn.

Row | Compound | melting point
1 | CCCOc1ccc2c(c1)[C@H](c1ccc(OC)cc1OCC(=O)[O-])[C@@H](C(=O)O[C@@H](C)OC(=O)C(C)(C)OC)[C@@H]2c1ccc2c(c1)OCO2.[Na+] (racemic) | 178 to 181 °C (dec.)
2 | O=C(O)C1[C@H](c2ccccc2)c2ccccc2[C@H]1c1ccccc1 (racemic) (as salt: sodium) [Example 21, (1RS, 3RS)-1,3-Diphenylindane-2-carboxylic acid] | 220 to 222 °C (dec.)
3 | COc1ccc([C@@H]2c3ccccc3[C@H](c3ccc4c(c3)OCO4)[C@H]2c2nnn[nH]2)cc1 (racemic) (hydrate or solvate) [Example 9, (1RS, 2SR, 3SR)-1-(4-Methoxyphenyl)-3-(3,4-methylenedioxyphenyl)-2-(tetrazol-5-yl)indane] | 155 to 157 °C
4 | COc1ccc([C@@H]2c3ccccc3[C@H](c3ccccc3)[C@H]2C(=O)O)cc1 (racemic) [Example 1, (1RS,2RS,3SR)-1-(4-Methoxyphenyl)-3-phenylindane-2-carboxylic acid] | 164 to 166 °C
5 | O=C(O)[C@H]1[C@H](c2ccc(F)cc2)c2ccccc2[C@@H]1c1ccc2c(c1)OCO2 (racemic) [Example 4, (1RS, 2SR, 3SR)-1-(4-Fluorophenyl)-3-(3,4-methylenedioxyphenyl)indane-2-carboxylic acid] | 146 to 149 °C
6 | COc1cccc([C@@H]2c3ccccc3[C@H](c3ccc4c(c3)OCO4)[C@H]2C(=O)O)c1 (racemic) [Example 5, (1RS, 2SR, 3SR)-1-(3-Methoxyphenyl)-3-(3,4-methylenedioxyphenyl)indane-2-carboxylic acid] | 131 to 133 °C
7 | O=C(O)C1[C@H](c2ccc3c(c2)OCO3)c2ccccc2[C@H]1c1ccc2c(c1)OCO2 (racemic) [Example 6, (1RS, 3RS)-1,3-Di-(3,4-methylenedioxyphenyl)-indane-2-carboxylic acid] | 182 to 185 °C
8 | O=C(O)[C@H]1[C@H](c2ccc3c(c2)OCO3)c2ccccc2[C@@H]1c1ccccc1 (racemic) [Example 8, (1RS, 2RS, 3SR)-1-(3,4-Methylenedioxyphenyl)-3-phenylindane-2-carboxylic acid] | 186 to 187 °C
9 | COc1ccc(C2C(C(=O)O)=C(c3ccccc3)c3ccccc32)cc1 (racemic) [Example 15, (1RS)-1-(4-Methoxyphenyl)-3-phenylindene-2-carboxylic acid] | 191 to 193 °C
10 | CCc1ccc([C@@H]2c3ccccc3[C@H](c3ccccc3)[C@H]2C(=O)O)cc1 (racemic) [Example 20, (1RS, 2RS, 3SR)-1-(4-Ethylphenyl)-3-phenylindane-2-carboxylic acid] | 163 to 164 °C
11 | COc1ccc([C@H]2c3ccccc3[C@@H](c3ccc(NC(C)=O)cc3)[C@H]2C(=O)O)cc1 (racemic) [Example 23, (1RS, 2RS, 3SR)-1-(4-Acetamidophenyl)-3-(4-methoxyphenyl)indane-2-carboxylic acid] | 231 to 232 °C
12 | O=C(O)[C@H]1[C@H](c2ccc(O)cc2)c2ccccc2[C@@H]1c1ccc2c(c1)OCO2 (racemic) [Example 25, (1RS, 2SR, 3SR)-1-(4-Hydroxyphenyl)-3-(3,4-methylenedioxyphenyl)indane-2-carboxylic acid] | 94 to 96 °C
13 | COc1ccc([C@H]2c3ccccc3[C@@H](c3ccc(OC)c(OC)c3)[C@@H]2C(=O)O)cc1 (racemic) [Example 26, (1RS, 2RS, 3SR)-1-(3,4-Dimethoxyphenyl)-3-(4-methoxyphenyl)indane-2-carboxylic acid] | 126 to 128 °C
14 | COc1ccc([C@H]2c3cc(OC)ccc3[C@@H](c3ccc4c(c3)OCO4)[C@H]2C(=O)O)cc1 (racemic) [Example 28, (1RS, 2SR, 3SR)-5-Methoxy-3-(4-methoxyphenyl)-1-(3,4-methylenedioxyphenyl)indane-2-carboxylic acid] | 129 to 131 °C
15 | CCCOc1ccc2c(c1)[C@@H](c1ccc(OC)cc1OCC(=O)O)[C@@H](C(=O)O)[C@H]2c1cc2c(cc1OC)OCO2 (racemic) [Example 30, (1RS, 2SR, 3SR)-3-(2-Carboxymethoxy-4-methoxyphenyl)-1-(2-methoxy-4,5-methylenedioxyphenyl)-5-(prop-1-yloxy)-indane-2-carboxylic acid] | 188 to 190 °C
16 | CCCOc1ccc2c(c1)[C@H](c1ccc(OC)cc1OCOC)[C@@H](C(=O)O)[C@@H]2c1ccc2c(c1)OCO2 (racemic) [Example 31, (1RS, 2SR, 3RS)-3-(4-methoxy-2-methoxymethoxyphenyl)1-(3,4-methylenedioxyphenyl)-5-(prop-1-yloxy)indane-2-carboxylic acid] | 161 to 163 °C
17 | CCCOc1ccc2c(c1)[C@H](c1ccccc1OCCC)[C@@H](C(=O)O)[C@@H]2c1ccc2c(c1)OCO2 (racemic) [Example 35, (1RS, 2SR, 3RS)-1-(3,4-Methylenedioxyphenyl)-3-[2-(prop-1-yloxy)phenyl]-5-(prop-1-yloxy)indane-2-carboxylic acid] | 179 to 180 °C
18 | CCCOc1ccc2c(c1)[C@H](c1ccccc1O)[C@@H](C(=O)O)[C@@H]2c1ccc2c(c1)OCO2 (racemic) [Example 36, (1RS, 2SR, 3RS)-3-(2-Hydroxyphenyl)-1-(3,4-methylenedioxyphenyl)-5-(prop-1-yloxy)indane-2-carboxylic acid] | 97 to 98 °C
19 | CCCOc1ccc2c(c1)[C@H](c1ccccc1OCC(=O)O)[C@@H](C(=O)O)[C@@H]2c1ccc2c(c1)OCO2 (racemic) [Example 37, (1 RS, 2SR, 3RS)-3-(2-Carboxymethoxyphenyl)-1-(3,4-methylenedioxyphenyl)-5-(prop-1-yloxy)indane-2-carboxylic acid] | 169 to 170 °C
20 | CCCOc1ccc2c(c1)[C@H](c1ccc(OC)cc1OC(C)C)[C@@H](C(=O)O)[C@@H]2c1ccc2c(c1)OCO2 (racemic) [Example 42, (1RS, 2SR, 3RS)-3-[4-Methoxy-2-(prop-2-yloxy)phenyl]-1-(3,4-methylenedioxyphenyl)-5-(prop-1-yloxy)indane-2-carboxylic acid] | 75 to 79 °C

Next, values leading:

Row | melting point | Compound
21 | 85 to 89 °C | CCCOc1ccc2c(c1)[C@H](c1ccc(OC)cc1OCC(C)C)[C@@H](C(=O)O)[C@@H]2c1ccc2c(c1)OCO2 (racemic) [Example 43, (1RS, 2SR, 3RS)-3-[4-Methoxy-2-(2-methylprop-1-yloxy)phenyl]-1-(3,4-methylenedioxyphenyl)-5-(prop-1-yloxy)indane-2-carboxylic acid]
22 | 199 to 201 °C | CCCOc1ccc2c(c1)[C@H](c1ccc(OC)cc1OCC#N)[C@@H](C(=O)O)[C@@H]2c1ccc2c(c1)OCO2 (racemic) [Example 50, (1RS,2SR,3RS)-3-(2-Cyanomethoxy-4-methoxyphenyl)-1-(3,4-methylenedioxyphenyl)-5-(prop-1-yloxy)indane-2-carboxylic acid]
23 | 199 to 200 °C | CCCOc1ccc2c(c1)[C@H](c1ccc(OC)cc1-c1ccccc1)[C@@H](C(=O)O)[C@@H]2c1ccc2c(c1)OCO2 (racemic) [Example 56, (1RS, 2SR, 3RS)-3-(4-Methoxy-2-phenylphenyl)-1-(3,4-methylenedioxyphenyl)-5-(prop-1-yloxy)indane-2-carboxylic acid]
24 | 126 to 127 °C | C=CCc1cc(OC)ccc1[C@H]1c2cc(OCCC)ccc2[C@@H](c2ccc3c(c2)OCO3)[C@@H]1C(=O)O (racemic) [Example 60, (1RS, 2SR, 3SR)-3-[4-Methoxy-2-(prop-2-en-1-yl)phenyl]-1-(3,4-methylenedioxyphenyl)-5-(prop-1-yloxy)indane-2-carboxylic acid]
25 | 155 to 156 °C | CCCOc1ccc2c(c1)[C@H](c1ccc(OC)cc1CCC)[C@@H](C(=O)O)[C@@H]2c1ccc2c(c1)OCO2 (racemic) [Example 61, (1RS, 2SR, 3SR)-3-[4-Methoxy-2-(prop-1-yl)phenyl]-1-(3,4-methylenedioxyphenyl)-5-(prop-1-yloxy)indane-2-carboxylic acid]
26 | 197 to 198 °C | COc1ccc([C@@H]2c3ccccc3[C@H](c3cc(OC)c(OC)c(OC)c3)[C@H]2C(=O)O)cc1 (racemic) [Example 72, (1RS, 2SR, 3S R)-1-(4-Methoxyphenyl)-3-(3,4,5-trimethoxyphenyl)indane-2-carboxylic acid]
27 | 169 to 170 °C | CCOc1ccc([C@@H]2c3ccccc3[C@H](c3ccc4c(c3)OCO4)[C@H]2C(=O)O)cc1 (racemic) [Example 73, (1RS, 2SR, 3SR)-1-(4-Ethoxyphenyl)-3-(3,4-methylenedioxyphenyl)indane-2-carboxylic acid]
28 | 110 to 113 °C | COc1ccc([C@H]2c3cc(O)ccc3[C@@H](c3ccc4c(c3)OCO4)[C@@H]2C(=O)O)c(OC)c1 (racemic) [Example 76, (1RS, 2SR, 3RS)-3-(2,4-Dimethoxyphenyl)-5-hydroxy-1-(3,4-methylenedioxyphenyl)indane-2-carboxylic acid]
29 | 225 to 226 °C | COc1cc(OC)c([C@H]2c3ccc(O)cc3[C@@H](c3ccc4c(c3)OCO4)[C@@H]2C(=O)O)c(OC)c1 (racemic) [Example 78, (1RS, 2SR, 3RS)-5-Hydroxy-3-(3,4-methylenedioxyphenyl)-1-(2,4,6-trimethoxyphenyl)indane-2-carboxylic acid]
30 | 124 to 127 °C | COc1ccc([C@@H]2c3ccc(O)cc3[C@H](c3ccc4c(c3)OCO4)[C@H]2C(=O)O)cc1 (racemic) [Example 81, (1RS, 2SR, 3SR)-5-Hydroxy-3-(3,4-methylenedioxyphenyl)-1-(4-methoxyphenyl)indane-2-carboxylic acid]
31 | 236 to 239 °C | COc1ccc([C@@H]2c3cc(O)ccc3[C@H](c3cc4c(cc3OC)OCO4)[C@H]2C(=O)O)cc1 (racemic) [Example 82, (1RS, 2SR, 3RS)-5-Hydroxy-3-(4-methoxyphenyl)-1-(2-methoxy-4,5-methylenedioxyphenyl)indane-2-carboxylic acid]
32 | 149 to 150 °C | COc1ccc([C@@H]2c3cc(OC)ccc3[C@@H](c3ccc4c(c3)OC(OC)O4)[C@H]2C(=O)O)cc1 (mixture of isomers) [Example 84, (1RS, 2SR, 3RS)-5-Methoxy-3-(4-methoxyphenyl)-1-(2-methoxy4,5-methylenedioxyphenyl)indane-2-carboxylic acid]
